Data set [1] addresses T1, human CYP2C19 (Homo sapiens, UniProt P33261).
T1 construct: host or cells: insect cells (microsomes)
The data set is described as follows: Inhibitory effect on CYP2C19. Conditions: microsome from insect cells expressing human CYP2C19, dibenzylfluorescein, 37° C. 30 min, 72 to 0.0329 μmol/L. It is filed as in vitro ADME. How it is done: Inhibitory effects of the compound of Example 3 and Comparative Compound 1 on human hepatic drug-metabolizing enzyme CYP2C19 were compared. A microsome prepared from insect cells expressing human CYP2C19 was used. Dibenzylfluorescein was used as a substrate. The reaction was conducted in a phosphate buffer solution (100 mmol/L, pH 7.4) including final concentrations of 15 nmol/L for the enzyme, 1.0 μmol/L for the substrate, 1.55 mmol/L for nicotinamide adenine dinucleotide phosphate oxidized form (NADP+), 3.3 mmol/L for glucose-6-phosphate, 3.3 mmol/L for magnesium chloride and 0.4 Units/mL for glucose-6-phosphate dehydrogenase (G6PDH). The concentrations of the respective compounds in the reaction solution were prepared in a 3-fold dilution series with a final concentration range of 72 to 0.0329 μmol/L. The reaction solutions were incubated at 37° C. for 30 min. Then the reaction was terminated by a 2 mol/L sodium hydroxide aqueous solution, and the reactant was further incubated at 37° C. for 2 hours. The enzyme activity was determined by measuring fluorescence with wavelength of 535 nm using excitation wavelength of 485 nm. The inhibitory effect was represented as IC50. Tranylcypromine was used as a positive control.

In data set [2] the test system is Aspergillus fumigatus IFM46895. As to the kind of experiment: Murine Aspergillus infection model (subcutaneous administration). The class given is in vivo. Conditions: cyclophosphamide-compromised male mice; 0.3 mg/kg subcutaneously, 7 times; observed 21 days after infection. The procedure:
(§1) As a Test Compound, the compound of Example 3 was used.
(§2) Spores of Aspergillus fumigatus IFM46895 were cultured on a potato dextrose agar medium at 30° C. for a week. The recovered spores were suspended in a sterile physiological saline solution containing 0.05% Tween 80, which was then diluted to prepare an inoculum solution.
Male mice (4 week-old, 5 mice/group) were administered intraperitoneally with 200 mg/kg of cyclophosphamide 4 days before infection and 100 mg/kg on the following day after the infection to obtain transient compromised condition. Each 0.2 mL of the inoculum solution was inoculated into the tail vein of each mouse to induce infection (about 1×10^5 CFU/mouse). The Test Compound was dissolved in a small amount of 0.1 mol/L hydrochloric acid, and the solution was diluted with a sterile physiological saline solution to obtain a 0.03 mg/mL solution. The solution was administered subcutaneously at the dose of 10 mL/kg body weight of mouse (0.3 mg/kg body weight). The administrations were conducted once 2 hours after the infection and once daily for the following 6 days, totaling 7 times. To a group receiving no Test Compound, an equal amount of a sterile physiological saline solution was administered. Viability of the mice was observed and recorded for 21 days after infection.

Data set [3] concerns Aspergillus fumigatus IFM46895. As to the kind of experiment: Murine Aspergillus infection model (oral administration). The class given is in vivo. The following applies: cyclophosphamide-compromised male mice; 10 mg/kg orally, 7 times; observed 21 days after infection. The procedure: As Test Compounds, the compound of Example 3 and Comparative Compound 1 were used.
as §2
Male mice (4 week-old, 5 mice/group) were administered intraperitoneally with 200 mg/kg of cyclophosphamide 4 days before infection and 100 mg/kg on the following day after the infection to obtain transient compromised condition. Each 0.2 mL of the inoculum solution was inoculated into the tail vein of each mouse to induce infection (about 1×10^5 CFU/mouse). The Test Compounds were dissolved in a small amount of 0.1 mol/L hydrochloric acid, and the solution was diluted with a sterile distilled water to obtain a 1 mg/mL solution. The solution was administered orally at the dose of 10 mL/kg body weight of mouse (10 mg/kg body weight). The administrations were conducted once 2 hours after the infection and once daily for the following 6 days, totaling 7 times. To a group receiving no Test Compounds, an equal amount of a sterile physiological saline solution was administered. Viability of the mice was observed and recorded for 21 days after infection.

A short description of data set [4]: Acute toxicity study in mice (intravenous administration). The class given is in vivo. Conditions: male mice, 50 mg/kg single intravenous dose. The procedure: The compound of Example 3 was dissolved in a small amount of 0.1 mol/L hydrochloric acid, and the solution was diluted with a sterile physiological saline solution to obtain a 5 mg/mL solution. The Test Compound solution was administered intravenously to male mice (4 week-old, 2 mice/group) at 10 mL/kg (50 mg/kg body weight) and the mice were observed until day 2 after administration.

The test system of data set [5] is Candida albicans TIMM 1623. The data set is described as follows: Murine Candida infection model (subcutaneous administration). The class given is in vivo. The following applies: cyclophosphamide-compromised male mice; 0.1 mg/kg subcutaneously, 4 times; observed 21 days after infection. How it is done:
as §1
Male mice (4 week-old, 5 mice/group) were administered intraperitoneally with 200 mg/kg of cyclophosphamide 4 days before infection and 100 mg/kg on the following day after the infection to obtain transient compromised condition. Candida albicans TIMM 1623 cultured on SDA at 35° C. was suspended in a sterile physiological saline solution to prepare a suspension at 1.5×10^5 cells/mL. Each 0.2 mL of the solution was inoculated into the tail vein of each mouse to induce infection (about 3×10^4 CFU/mouse). The Test Compound was dissolved in a small amount of 0.1 mol/L hydrochloric acid, and the solution was diluted with a sterile physiological saline solution to obtain a 0.01 mg/mL solution. The solution was administered subcutaneously at the dose of 10 mL/kg body weight of mouse (0.1 mg/kg body weight). The administrations were conducted once 2 hours after the infection and once daily for the following consecutive 3 days, totaling 4 times. To a group receiving no Test Compound, an equal amount of a sterile physiological saline solution was administered. Viability of the mice was observed and recorded for 21 days after infection.

In data set [6] the target is T2, human CYP2D6 (Homo sapiens, UniProt P10635).
T2 construct: host or cells: insect cells (microsomes)
The data set is described as follows: Inhibitory effect on CYP2D6. It is filed as in vitro ADME. Conditions: microsome from insect cells expressing human CYP2D6, fluorescent substrate, 37° C. 30 min, 72 to 0.0329 μmol/L. The procedure: Inhibitory effects of the compound of Example 3, Comparative Compound 1, Comparative Compound 2 and Comparative Compound 3 on human hepatic drug-metabolizing enzyme CYP2D6 were compared. A microsome prepared from insect cells expressing human CYP2D6 was used, and a substrate was 3-[2-(N,N-diethyl-N-methylammonium)ethyl]-7-methoxy-4-methylcoumarin iodide. The reaction was conducted in a phosphate buffer solution (100 mmol/L, pH 7.4) including final concentrations of 20 nmol/L for the enzyme, 1.5 μmol/L for the substrate, 1.55 mmol/L for nicotinamide adenine dinucleotide phosphate oxidized form (NADP+), 3.3 mmol/L for glucose-6-phosphate, 3.3 mmol/L for magnesium chloride and 0.4 Units/mL for glucose-6-phosphate dehydrogenase (G6PDH). The concentrations of the respective compounds in the reaction solution were prepared in a 3-fold dilution series with a final concentration range of 72 to 0.0329 μmol/L. The reaction solutions were incubated at 37° C. for 30 min. Then the reaction was terminated by a 80% acetonitrile solution (containing tris at a final concentration of 0.1 mol/L), and the enzyme activity was determined by measuring fluorescence with wavelength of 465 nm using excitation wavelength of 400 nm. The inhibitory effect was expressed as IC50. Quinidine was used as a positive control.

The structures appear in SMILES notation.

We go through one compound from patent US8536343B2, “Arylamidine derivative, salt thereof and antifungal agent containing those” (Toyama Chemical Co., Ltd., priority 2005, dated 2013).

T2 sequence (P10635 whole entry): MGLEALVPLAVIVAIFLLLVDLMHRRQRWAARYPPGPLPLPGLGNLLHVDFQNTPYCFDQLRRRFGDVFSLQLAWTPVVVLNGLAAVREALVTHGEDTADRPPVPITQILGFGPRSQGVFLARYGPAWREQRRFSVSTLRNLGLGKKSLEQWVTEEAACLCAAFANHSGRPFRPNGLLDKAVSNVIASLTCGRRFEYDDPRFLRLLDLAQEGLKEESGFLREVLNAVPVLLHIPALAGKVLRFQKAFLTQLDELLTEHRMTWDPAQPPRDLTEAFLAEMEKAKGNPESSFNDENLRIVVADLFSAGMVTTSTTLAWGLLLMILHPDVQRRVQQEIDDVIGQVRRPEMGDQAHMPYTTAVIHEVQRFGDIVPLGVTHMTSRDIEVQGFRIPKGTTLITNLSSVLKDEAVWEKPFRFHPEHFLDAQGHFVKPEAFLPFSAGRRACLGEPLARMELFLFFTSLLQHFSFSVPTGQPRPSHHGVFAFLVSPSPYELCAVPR
T1 sequence (P33261 whole entry): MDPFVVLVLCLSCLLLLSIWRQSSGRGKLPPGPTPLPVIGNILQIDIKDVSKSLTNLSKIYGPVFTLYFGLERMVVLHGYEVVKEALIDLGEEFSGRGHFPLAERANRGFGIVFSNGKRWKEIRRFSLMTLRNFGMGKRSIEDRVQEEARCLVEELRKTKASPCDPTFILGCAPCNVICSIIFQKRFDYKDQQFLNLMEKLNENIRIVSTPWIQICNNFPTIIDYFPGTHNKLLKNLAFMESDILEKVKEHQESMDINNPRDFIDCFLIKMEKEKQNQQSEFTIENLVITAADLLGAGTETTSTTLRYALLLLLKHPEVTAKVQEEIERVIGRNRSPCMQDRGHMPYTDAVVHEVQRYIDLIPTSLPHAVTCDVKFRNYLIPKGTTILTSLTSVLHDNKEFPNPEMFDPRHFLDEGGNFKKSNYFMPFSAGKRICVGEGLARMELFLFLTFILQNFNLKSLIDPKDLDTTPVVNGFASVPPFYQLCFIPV

Consider `CCCCOC(=O)N=C(N)c1ccc(OCCCC2CCN(CCCOc3ccc(C(N)=NC(=O)OCCCC)cc3)CC2)cc1` [Example 3, 4-{3-[4-(3-{4-[amino(butoxycarbonylimino)methyl]phenoxy}propyl)-1-piperidinyl]propoxy}-N′-(butoxycarbonyl)benzamidine], for which the IC50 in data set [1] and in data set [6] was more than 72 µM in each case. For the same compound, the mice survived in data set [2] was 60%; in data set [3], 80%; in data set [5], 80%. Besides, in data set [4], the “survival until day 2 after administration” value is recorded as “all mice survived”.
